# Laboratory results from patent publication US20130011479A1, “DOUBLE-LAYER PHARMACEUTICAL FORMULATIONS CONTAINING OPIOID AGONISTS AND ANTAGONISTS” (L. MOLTENI & C. DEI FRATELLI ALITTI SOCIETA' DI ESERCIZIO …, priority 2010, published 2013).
# Key:
# [1] = Intrathecal screening of patients treated with opioids: adverse events / side-effects monitored at several time points; assay type: in vivo; design: key to vertigo / vomiting / pruritus / nausea / numbness / side-effects (grade printed beside morphine) / drowsiness / constipation / loss of appetite / urinary retention / sweating: (0) = none; (1) = mild; (2) = moderate; (3) = intense; (4) = severe
# Description: (§1) A dose of opioids was administered with or without naltrexone and the adverse events or side-effects and anti-nociceptive effects were monitored at several time points.
# (§2) In particular, patients with chronic (non-oncological) spinal pain and oncological patients in the non-terminal phase with evidence of side effects after minimum doses of opioids were monitored.
# [2] = Intrathecal screening of patients treated with opioids: anti-nociceptive effects (Efficacy) monitored at several time points; assay type: in vivo
# Description: Patients being treated with opioids underwent intrathecal screening, in which the evidence of side effects is extremely significant.
# as §1, §2
# [3] = Algoneurodystrophy, 2 h, without naltrexone
# [4] = Back pain, 1 h, without naltrexone
# [5] = Back pain, 2 h, without naltrexone
# [6] = Back pain, 4 h, without naltrexone
# [7] = Back pain, 24 h, without naltrexone
# [8] = Cancer of the pancreas, without naltrexone
# [9] = Diabetes mellitus type II, without naltrexone
# [10] = Lumbago, 4 h, without naltrexone
# [11] = Lumbago, 6 h, without naltrexone
# [12] = Lumbago, 8 h, without naltrexone
# [13] = Lumboischialgia in diabetic patients (VAS 6-7), without naltrexone
# [14] = Lumboischialgia, without naltrexone
# [15] = Lumbosacral spondylitis without myelopathy, 2 h-4 h, without naltrexone
# [16] = Multiple sclerosis, without naltrexone
# [17] = Nonspecific coccyx disorders, 6 h, without naltrexone
# [18] = Persistent pain syndrome, without naltrexone
# [19] = Right lumboischialgia, without naltrexone
# [20] = Secondary bone and marrow malignancies (patient at r66), without naltrexone
# [21] = Secondary bone and marrow malignancies (patient at r76), without naltrexone
# [22] = Secondary malignancies of bone and marrow, without naltrexone
# [23] = Stenosis of the lumbar spinal canal, without naltrexone
# [24] = Persistent pain syndrome, with naltrexone
# [25] = Right lumboischialgia, with naltrexone
# [26] = Right lumboischialgia, with naltrexone, first mention in the cell
# [27] = Right lumboischialgia, with naltrexone, second mention in the cell
# [28] = Secondary bone and marrow malignancies (patient at r66), with naltrexone
# [29] = Spinal pain, 4 h, with naltrexone
# [30] = Spinal pain, 6 h, with naltrexone
smiles,measurement,setting,value
CN1CC[C@]23c4c5ccc(O)c4O[C@H]2[C@@H](O)C=C[C@H]3[C@H]1C5 [morphine],pruritus,"[1]; Algoneurodystrophy, 6-8 h, without naltrexone","6-8 h: pruritus (3), urinary"
same,pruritus,"[1]; Algoneurodystrophy, 1 h, without naltrexone",1 h: pruritus (3)
same,pruritus,[1]; [3],2 h: pruritus (3)
same,vertigo,"[1]; Back pain, 30 min, without naltrexone",30 min: vertigo (1)
same,nausea,[1]; [4],"1 h: vertigo (1), nausea (1)"
same,vertigo,[1]; [4],"1 h: vertigo (1), nausea (1)"
same,vertigo,[1]; [5],"2 h: vertigo (2), vomiting (2)"
same,vomiting,[1]; [5],"2 h: vertigo (2), vomiting (2)"
same,nausea,[1]; [6],3
same,vertigo,[1]; [6],2
same,vomiting,[1]; [6],vomiting (2)
same,pruritus,"[1]; Back pain, 8 h, without naltrexone",8 h: pruritus (2)
same,nausea,[1]; [7],"24 h: nausea (2), vertigo (2)"
same,vertigo,[1]; [7],"24 h: nausea (2), vertigo (2)"
same,constipation,[1]; [8],constipation
same,nausea,[1]; [8],3
same,nausea,[1]; [9],3
same,pruritus,[1]; [9],4
same,drowsiness,"[1]; Lumbago, 1 h, without naltrexone",1 h: drowsiness (1)
same,nausea,[1]; [10],"4 h: nausea (2), vomiting (2)"
same,vomiting,[1]; [10],"4 h: nausea (2), vomiting (2)"
same,nausea,[1]; [11],3
same,pruritus,[1]; [11],"6 h: pruritus (3), urinary reten-"
same,vomiting,[1]; [11],2
same,nausea,[1]; [12],3
same,pruritus,[1]; [12],"pruritus (3), urinary retention (3)"
same,vomiting,[1]; [12],2
same,constipation,[1]; [13],constipation
same,drowsiness,[1]; [13],drowsiness
same,nausea,[1]; [13],nausea
same,oedema,[1]; [13],moderate
same,pruritus,[1]; [13],pruritus
same,nausea,[1]; [14],"nausea (2),"
same,pruritus,[1]; [14],2
same,sweating,[1]; [14],"sweating (2), vertigo (2),"
same,vertigo,[1]; [14],"sweating (2), vertigo (2),"
same,vomiting,[1]; [14],3
same,nausea,[1]; [15],nausea
same,vomiting,[1]; [15],vomiting
same,vomiting,"[1]; Lumbosacral spondylitis without myelopathy, 6 h-8 h, without naltrexone",6 h-8 h: vomiting
same,constipation,[1]; [16],constipation
same,loss of appetite,[1]; [16],loss of appetite
same,nausea,[1]; [16],nausea
same,vertigo,[1]; [16],vertigo
same,vomiting,"[1]; Nonspecific coccyx disorders, 4 h, without naltrexone",4 h: recurrent vomiting
same,nausea,[1]; [17],"6 h: vomiting (3), nausea (3)"
same,vomiting,[1]; [17],"6 h: vomiting (3), nausea (3)"
same,asthenia,"[1]; Nonspecific coccyx disorders, 8 h, without naltrexone",8 h: asthenia
same,side-effects (grade printed beside morphine),"[1]; Nonspecific coccyx disorders, time not given, without naltrexone",morphine (0)
same,nausea,[1]; [18],nausea
same,vertigo,[1]; [18],vertigo
same,vomiting,[1]; [18],4
same,nausea,[1]; [19],2
same,pruritus,[1]; [19],4
same,vomiting,[1]; [19],"ing (2), urinary retention (2)"
same,constipation,[1]; [20],"constipation (3), drowsiness (3),"
same,drowsiness,[1]; [20],"constipation (3), drowsiness (3),"
same,constipation,[1]; [21],tion (1)
same,loss of appetite,[1]; [21],"nausea (4), loss of appetite (4),"
same,nausea,[1]; [21],"nausea (4), loss of appetite (4),"
same,vertigo,[1]; [21],4
same,vomiting,[1]; [21],vomiting
same,constipation,[1]; [22],constipation
same,pruritus,[1]; [22],pruritus (3)
same,headache,[1]; [23],headache
same,nausea,[1]; [23],4
same,pruritus,[1]; [23],1
same,sweating,[1]; [23],sweating
same,vomiting,[1]; [23],vomiting
same,Efficacy,[2]; [3],2 h: 30-40%
same,Efficacy,"[2]; Algoneurodystrophy, 8 h, without naltrexone",8 h: 80%
same,Efficacy,"[2]; Algoneurodystrophy, 14 h, without naltrexone",14 h: 70%
same,Efficacy,"[2]; Lumbosacral spondylitis without myelopathy, 2 h-24 h, without naltrexone",2 h-24 h: 80%
same,Efficacy,"[2]; Nonspecific coccyx disorders, without naltrexone",Efficacy <30%
same,Efficacy,[2]; [21],Efficacy: 100%
O=C1CC[C@@]2(O)[C@H]3Cc4ccc(O)c5c4[C@@]2(CCN3CC2CC2)[C@H]1O5 [naltrexone],chest pain,"[1]; Back pain, h 17.30, with naltrexone",chest pain
same,tachycardia,"[1]; Back pain, h 18.30, with naltrexone",h 18.30: tachycardia
same,benefit,"[1]; Diabetes mellitus type II, with naltrexone",benefit 100%
same,drowsiness,"[1]; Lumbago, 1 h, with naltrexone",1 h: drowsiness (1)
same,pruritus,"[1]; Lumbago, 2 h, with naltrexone",2 h: pruritus (2)
same,drowsiness,"[1]; Lumbago, 4 h, with naltrexone","4 h: drowsiness (2), pruritus (2)"
same,pruritus,"[1]; Lumbago, 4 h, with naltrexone","4 h: drowsiness (2), pruritus (2)"
same,drowsiness,"[1]; Lumbago, 6 h, with naltrexone",1
same,pruritus,"[1]; Lumbago, 6 h, with naltrexone",2
same,constipation,[1]; [24],constipation
same,drowsiness,[1]; [24],drowsiness
same,nausea,[1]; [24],nausea
same,sweating,[1]; [24],sweating
same,vertigo,[1]; [24],vertigo
same,vomiting,[1]; [24],vomiting
same,side-effects,"[1]; Persistent spinal pain syndrome of uncertain aetiology, with naltrexone",none
same,nausea,[1]; [25],2
same,vomiting,[1]; [25],"vomiting (2), urinary"
same,pruritus,[1]; [26],4
same,urinary retention,[1]; [26],2
same,pruritus,[1]; [27],1
same,urinary retention,[1]; [27],urinary retention (1)
same,constipation,[1]; [28],"constipation (3), drowsiness"
same,drowsiness,[1]; [28],3
same,urinary retention,[1]; [28],short-lived
same,pruritus improved by,"[1]; Secondary malignancies of bone and marrow, with naltrexone",90%
same,numbness,[1]; [29],"4 h: pruritus (1), numbness (1)"
same,pruritus,[1]; [29],"4 h: pruritus (1), numbness (1)"
same,nausea,[1]; [30],nausea (1)
same,numbness,[1]; [30],"6 h: pruritus (1), numbness (1),"
same,pruritus,[1]; [30],"6 h: pruritus (1), numbness (1),"
same,nausea,"[1]; Spinal pain, 8 h, with naltrexone",8 h: nausea (1)
same,nausea,"[1]; Stenosis of the lumbar spinal canal, with naltrexone",nausea (1)
same,Efficacy,"[2]; Lumbago, 1 h, with naltrexone",1 h: 30-50%
same,Efficacy,"[2]; Lumbago, 4 h-8 h, with naltrexone",4 h-8 h: >50%
same,Efficacy,"[2]; Spinal pain, 1 h-8 h, at rest, with naltrexone","1 h-8 h: at rest 100%, under"
same,Efficacy,"[2]; Spinal pain, 1 h-8 h, under strain, with naltrexone",strain 70%
